Values of other authors, collected in publication PMC2234480 (The Journal of General Physiology, 2003).

Test system: CLC-0
Conditions: ref Pusch et al., 2001

- affinity for closed channels (model from macroscopic and single-channel analysis): submillimolar affinity
SMILES: CCC(Oc1ccc(Cl)cc1)C(=O)O (centres unmarked) [CPB, p-chlorophenoxy-butyric acid]
- relief of block at positive voltages (5 mM CPB, V > 40 mV): complete unblock
